Assay results published in PMC5903252 (British Journal of Clinical Pharmacology, 2018).

Assay: Plasma pharmacokinetics of BMS-962212 after IV infusion
Conditions: for clearance / Vd / half-life / AUC(0-inf) / AUC(0-t) / Cmax / Tmax: human, in vivo
[1] = part B 1 mg h^−1, Japanese ethnicity (n = 4), geometric mean (CV%)
[2] = part B 1 mg h^−1, Non-Japanese ethnicity (n = 4), geometric mean (CV%)
[3] = part B 3 mg h^−1, Japanese ethnicity (n = 4), geometric mean (CV%)
[4] = part B 3 mg h^−1, Non-Japanese ethnicity (n = 4), geometric mean (CV%)
[5] = part B 9 mg h^−1, Japanese ethnicity (n = 4), geometric mean (CV%)
[6] = part B 9 mg h^−1, Non-Japanese ethnicity (n = 4), geometric mean (CV%)
[7] = part B 20 mg h^−1, Japanese ethnicity (n = 4), geometric mean (CV%)
[8] = part B 20 mg h^−1, Non-Japanese ethnicity (n = 4), geometric mean (CV%)

CN1CCN(c2cccc3c2CCN(C(=O)/C=C/c2c(-n4cnnn4)ccc(Cl)c2F)[C@@H]3C(=O)Nc2ccc(C(=O)O)cc2)C(=O)C1 [BMS‐962212]
clearance (iv, 1.5 mg h^−1, CL, part A 2-h IV infusion 1.5 mg h^−1, geometric mean (CV%)): 276 mL/min | Vd (iv, 1.5 mg h^−1, Vz, part A 2-h IV infusion 1.5 mg h^−1, geometric mean (CV%)): 72.6 L | half-life (iv, 1.5 mg h^−1, t1/2, part A 2-h IV infusion 1.5 mg h^−1, geometric mean (CV%)): 2.04 h | AUC(0-inf) (iv, 3 mg h^−1): 21400 ng·h/mL | AUC(0-t) (iv, 3 mg h^−1): 21200 ng·h/mL | Cmax (iv, 3 mg h^−1): 202 ng/mL | Tmax (iv, 3 mg h^−1): 60 h | clearance (iv, 3 mg h^−1, CL, part B 5-day IV infusion 3 mg h^−1, geometric mean (CV%)): 280 mL/min | Vd (iv, 3 mg h^−1, Vz, part B 5-day IV infusion 3 mg h^−1, geometric mean (CV%)): 165 L | half-life (iv, 3 mg h^−1, t1/2, part B 5-day IV infusion 3 mg h^−1, geometric mean (CV%)): 6.22 h | AUC(0-inf) (iv, 4 mg h^−1): 377 ng·h/mL | AUC(0-t) (iv, 4 mg h^−1): 233 ng·h/mL | Cmax (iv, 4 mg h^−1): 182 ng/mL | Tmax (iv, 4 mg h^−1): 2 h | clearance (iv, 4 mg h^−1, CL, part A 2-h IV infusion 4 mg h^−1, geometric mean (CV%)): 358 mL/min | Vd (iv, 4 mg h^−1, Vz, part A 2-h IV infusion 4 mg h^−1, geometric mean (CV%)): 118 L | half-life (iv, 4 mg h^−1, t1/2, part A 2-h IV infusion 4 mg h^−1, geometric mean (CV%)): 3.95 h | AUC(0-inf) (iv, 9 mg h^−1): 55500 ng·h/mL | AUC(0-t) (iv, 9 mg h^−1): 54800 ng·h/mL | Cmax (iv, 9 mg h^−1): 520 ng/mL | Tmax (iv, 9 mg h^−1): 36 h | clearance (iv, 9 mg h^−1, CL, part B 5-day IV infusion 9 mg h^−1, geometric mean (CV%)): 324 mL/min | Vd (iv, 9 mg h^−1, Vz, part B 5-day IV infusion 9 mg h^−1, geometric mean (CV%)): 216 L | half-life (iv, 9 mg h^−1, t1/2, part B 5-day IV infusion 9 mg h^−1, geometric mean (CV%)): 8.65 h | AUC(0-inf) (iv, 10 mg h^−1): 1050 ng·h/mL | AUC(0-t) (iv, 10 mg h^−1): 664 ng·h/mL | Cmax (iv, 10 mg h^−1): 505 ng/mL | Tmax (iv, 10 mg h^−1): 2 h | clearance (iv, 10 mg h^−1, CL, part A 2-h IV infusion 10 mg h^−1, geometric mean (CV%)): 320 mL/min | Vd (iv, 10 mg h^−1, Vz, part A 2-h IV infusion 10 mg h^−1, geometric mean (CV%)): 126 L | half-life (iv, 10 mg h^−1, t1/2, part A 2-h IV infusion 10 mg h^−1, geometric mean (CV%)): 4.68 h | AUC(0-inf) (iv, 20 mg h^−1): 126000 ng·h/mL | AUC(0-t) (iv, 20 mg h^−1): 124000 ng·h/mL | Cmax (iv, 20 mg h^−1): 1170 ng/mL | Tmax (iv, 20 mg h^−1): 60 h | clearance (iv, 20 mg h^−1, CL, part B 5-day IV infusion 20 mg h^−1, geometric mean (CV%)): 317 mL/min | Vd (iv, 20 mg h^−1, Vz, part B 5-day IV infusion 20 mg h^−1, geometric mean (CV%)): 219 L | half-life (iv, 20 mg h^−1, t1/2, part B 5-day IV infusion 20 mg h^−1, geometric mean (CV%)): 7.65 h | AUC(0-inf) (iv, 25 mg h^−1): 2730 ng·h/mL | AUC(0-t) (iv, 25 mg h^−1): 1740 ng·h/mL | Cmax (iv, 25 mg h^−1): 1120 ng/mL | Tmax (iv, 25 mg h^−1): 2 h | clearance (iv, 25 mg h^−1, CL, part A 2-h IV infusion 25 mg h^−1, geometric mean (CV%)): 312 mL/min | Vd (iv, 25 mg h^−1, Vz, part A 2-h IV infusion 25 mg h^−1, geometric mean (CV%)): 129 L | half-life (iv, 25 mg h^−1, t1/2, part A 2-h IV infusion 25 mg h^−1, geometric mean (CV%)): 4.94 h | clearance (iv, CL, range across panels, part A 2-h IV infusion): 276 to 358 mL/min | clearance (iv, CL, range across panels, part B 5-day IV infusion): 280 to 324 mL/min | Vd (iv, Vss, range across panels, 5-day IV infusion): 164 to 218 L | Vd (iv, Vz, range across panels, 2-h IV infusion): 72 to 129 L | half-life (t1/2 range over all dose groups, part B, Japanese subjects): 6.42 to 8.28 h | half-life (t1/2 range over all dose groups, part B, non-Japanese subjects): 6.05 to 8.32 h | Steady‐state concentration [1]: 55.81 (20.5) ng ml ^−1 | Weight‐corrected steady‐state concentration [1]: 4.21 (21.6) kg μg.ml ^−1 | Steady‐state concentration [2]: 49.88 (27.3) ng ml ^−1 | Weight‐corrected steady‐state concentration [2]: 4.34 (15.5) kg μg.ml ^−1 | Steady‐state concentration [3]: 188.03 (17.9) ng ml ^−1 | Weight‐corrected steady‐state concentration [3]: 14.33 (32.9) kg μg.ml ^−1 | Steady‐state concentration [4]: 157.76 (12.9) ng ml ^−1 | Weight‐corrected steady‐state concentration [4]: 14.10 (22.7) kg μg.ml ^−1 | Steady‐state concentration [5]: 439.27 (18.9) ng ml ^−1 | Weight‐corrected steady‐state concentration [5]: 29.60 (18.9) kg μg.ml ^−1 | Steady‐state concentration [6]: 458.34 (18.9) ng ml ^−1 | Weight‐corrected steady‐state concentration [6]: 34.47 (23.5) kg μg.ml ^−1 | Steady‐state concentration [7]: 1161.68 (17.7) ng ml ^−1 | Weight‐corrected steady‐state concentration [7]: 76.07 (30.1) kg μg.ml ^−1 | Steady‐state concentration [8]: 887.21 (23.3) ng ml ^−1 | Weight‐corrected steady‐state concentration [8]: 70.57 (32.4) kg μg.ml ^−1 | dose proportionality (parts A and B): demonstrated dose proportionality
